{"source": "patent US4759917A", "about": "“Oxidative dissolution of gallium arsenide and separation of gallium from arsenic” (priority 1987, dated 1988)", "key": {"[1]": {"assay": "Example 4: oxidizing agents with N-methylnonanohydroxamic acid as complexing agent on gallium arsenide (Table 5)", "procedure": "A series of procedures were conducted to test effectiveness of various complexing agents with hydrogen peroxide to oxidize and effect dissolution of gallium arsenide. A 0.5 gram amount of GaAs powder was added to a 50 ml beaker with 20 ml deionized water. The complexing agent was added with stirring, followed by addition of 5 ml 30% hydrogen peroxide in water with stirring. Stirring was continued for about 10 minutes with gradual heating on a hot plate to 85° C., with observation for reaction. The mixtures were then allowed to stand at room temperature for about four days with observation for further changes, and the percentage of the starting gallium which had dissolved was determined by analysis of the liquid by atomic absorption.\nUsing the procedure of Example 2 and 3.0 ml of N-methylnonanohydroxamic acid as complexing agent, a number of oxidizing agents were employed with gallium arsenide, with results as reported in Table 5."}, "[2]": {"assay": "Example 2: complexing agents with hydrogen peroxide to oxidize and dissolve gallium arsenide (Table 3)"}, "[3]": {"assay": "Aqueous solubilities of N-alkylalkano and N-H hydroxamic acids (Table 1)", "format": "physicochemical", "source_text": "It is desirable that the N-organo hydroxamic acid have low solubility in water in order to effect ready separation of the chelated gallium from the aqueous oxidizing medium.\nFor the extraction to occur, it is necessary that the extractant have some slight solubility in the aqueous Ga-containing medium."}, "[4]": {"assay": "Solubility in a typical phosphate rock treater dust leachate", "format": "physicochemical", "details": "leachate with high concentrations of Al, Zn, Fe, phosphate and other ions", "source_text": "It wlll be noted that most of the N-alkyl hydroxamic acids have very low solubilities in aqueous media, with the solubility tending to increase with decreasing number of carbon atoms in the hydroxamic acids. […] This appreciable but limited solubility appears responsible for the effectiveness of N-methylnonanohydroxamic acid in extracting Ga from such leachates, with regard to both rate and extent of the extraction compared to higher carbon number N-alkyl hydroxamic acids. For the extraction to occur, it is necessary that the extractant have some slight solubility in the aqueous Ga-containing medium."}, "[5]": {"assay": "Example 1: gallium recovery from Lap Sludge by simultaneous dissolution and separation"}, "[6]": {"details": "0.5 g GaAs, 20 ml water, 5 ml 30% H2O2, heated to 85° C. about 10 min, then about four days at room temp."}, "[7]": {"details": "observation during about 10 min stirring with heating to 85° C., H2O2"}, "[8]": {"details": "30% H2SO4 strip of organic phase"}, "[9]": {"details": "aqueous phase plus dilute nitric acid and other washes"}}, "note": "Where “and” joins values, the source holds several entries; their conditions need not be identical. Equal entries are not always repeated. Where two headings read alike, the source gives them in different places.", "data": [{"molecule": "II", "values": [{"measurement": "Result: time to complete reaction, no heating", "setting": "[1]; 3.0 ml N-methylnonanohydroxamic acid as complexing agent, no heating", "result": 60, "unit": "s"}]}, {"molecule": "CCCCCCCCCc1ccc(O)cc1", "note": "[4-nonylphenol]", "values": [{"measurement": "% Ga in Solution After 4 Days", "setting": "[2]", "result": 0, "unit": "%"}, {"measurement": "Initial Result", "setting": "[2]", "result": "No reaction"}]}, {"molecule": "CC(=O)NO", "note": "[Acetohydroxamic Acid]", "values": [{"measurement": "Initial Result: time to complete dissolution", "setting": "[2]", "result": 25, "unit": "min"}, {"measurement": "Initial Result: % reacted in 30 min.", "setting": "[2]; 0.62 grams, omitted heating, 30 min.", "result": 80, "unit": "%"}, {"measurement": "% Ga in Solution After 4 Days (omitted heating)", "setting": "[2]; omitted heating, H2O2", "result": 100, "unit": "%"}]}, {"molecule": "CC(O)(P(=O)(O)O)P(=O)(O)O", "note": "[Dequest ® 2010]", "values": [{"measurement": "% Ga in Solution After 4 Days", "setting": "[2]", "result": 100, "unit": "%"}, {"measurement": "effectiveness in reaction and dissolution of gallium arsenide", "setting": "[2]; H2O2 as oxidizing agent", "result": "works well"}]}, {"molecule": "CCCCC(CC)COP(=O)(O)OCC(CC)CCCC", "note": "(stereo not drawn) [Di-(2-ethylhexyl) phosphoric acid]", "values": [{"measurement": "% Ga in Solution After 4 Days", "setting": "[2]", "result": 0, "unit": "%"}, {"measurement": "Initial Result", "setting": "[2]", "result": "No reaction"}]}, {"molecule": "O=P([O-])([O-])O.[Na+].[Na+]", "note": "[Disbasic Sodium phosphate (Na2 HPO4), Disbasic Sodium phosphate]", "values": [{"measurement": "% Ga in Solution After 4 Days", "setting": "[2]", "result": 100, "unit": "%"}, {"measurement": "effectiveness in reaction and dissolution of gallium arsenide", "setting": "[2]", "result": "effective in causing dissolution, but at a slow rate and with some white precipitate formation"}]}, {"molecule": "O=C(O)CN(CCN(CC(=O)O)CC(=O)O)CC(=O)O", "note": "[Ethylene diamine tetracetic acid]", "values": [{"measurement": "% Ga in Solution After 4 Days", "setting": "[2]", "result": 84.2, "unit": "%"}]}, {"molecule": "O=P(O)(O)CCP(=O)(O)O", "note": "[H2 O3 PCH2 CH2 PO3 H2, ethylene diphosphonic acid]", "values": [{"measurement": "effectiveness in reaction and dissolution of gallium arsenide", "setting": "[2]; H2O2 as oxidizing agent", "result": "an insoluble gallium complex may form and precipitate from the aqueous oxidizing medium"}, {"measurement": "Initial Result: time to complete reaction", "setting": "[2]; heating to 85° C., H2O2", "result": 3, "unit": "min"}]}, {"molecule": "O=[N+]([O-])O", "note": "[HNO3 conc., nitric acid]", "values": [{"measurement": "Result: time to complete reaction", "setting": "[1]; 3.0 ml N-methylnonanohydroxamic acid as complexing agent", "result": 50, "unit": "s"}, {"measurement": "Result: time to complete reaction, no complexing agent", "setting": "[1]; no complexing agent", "result": 20, "unit": "min"}]}, {"molecule": "[K+].[OH-]", "note": "[KOH, potassium hydroxide]", "values": [{"measurement": "Initial Result", "setting": "[2]", "result": "No reaction"}]}, {"molecule": "C=CC(CC(C)(C)CC(C)(C)C)c1ccc2cccnc2c1O", "note": "(stereo not drawn) [Kelex ® 100]", "values": [{"measurement": "% Ga in Solution After 4 Days", "setting": "[2]", "result": 0, "unit": "%"}]}, {"molecule": "O=P([O-])(O)O.[Na+]", "note": "[Monobasic sodium phosphate (NaH2 PO4), Monobasic sodium phosphate]", "values": [{"measurement": "% Ga in Solution After 4 Days", "setting": "[2]; [6]", "result": 0, "unit": "%"}, {"measurement": "Initial Result", "setting": "[2]; [7]", "result": "No reaction"}]}, {"molecule": "CCCCCCCCCC(CCCCCCCCC)N(O)C(=O)C1CCCCC1", "note": "[N-(1-nonyldecyl) cyclohexanohydroxamic acid]", "values": [{"measurement": "Solubility (25° C.)", "setting": "[3]", "result": "0.7 ± 1", "unit": "ppm"}, {"measurement": "Solubility (25° C.), molarity", "setting": "[3]", "result": "1.7 × 10^-6 molarity"}]}, {"molecule": "CCCCCCCCCC(=O)N(O)CCCCCC", "note": "[N--hexyldecanohydroxamic acid]", "values": [{"measurement": "Solubility (25° C.)", "setting": "[3]", "result": "1.6 ± 1", "unit": "ppm"}, {"measurement": "Solubility (25° C.), molarity", "setting": "[3]", "result": "5.71 × 10^-6 molarity"}]}, {"molecule": "CCCCCCCCCC(=O)N(O)C(C)C", "note": "[N--isopropyldecanohydroxamic acid]", "values": [{"measurement": "Solubility (25° C.)", "setting": "[3]", "result": "3.9 ± 1", "unit": "ppm"}, {"measurement": "Solubility (25° C.), molarity", "setting": "[3]", "result": "1.68 × 10^-5 molarity"}]}, {"molecule": "CCCCCCCCCC(=O)N(C)O", "note": "[N--methyldecanohydroxamic acid]", "values": [{"measurement": "Solubility (25° C.)", "setting": "[3]", "result": "111. ppm and 82. ppm"}]}, {"molecule": "CCCCCCCCCCCCCCCC(=O)N(C)O", "note": "[N--methylhexadecanohydroxamic acid]", "values": [{"measurement": "Solubility (25° C.)", "setting": "[3]", "result": "1.3 ± 1", "unit": "ppm"}, {"measurement": "Solubility (25° C.), molarity", "setting": "[3]", "result": "4.60 × 10^-6 molarity"}]}, {"molecule": "CCCCCCCCC(=O)N(C)O", "note": "[N-methylnonanohydroxamic acid]", "values": [{"measurement": "solubility in a typical phosphate rock treater dust leachate", "setting": "[4]", "result": 20, "unit": "ppm"}, {"measurement": "solubility in a typical phosphate rock treater dust leachate, molarity", "setting": "[4]", "result": "1.07×10^-4 molarity"}, {"measurement": "As in combined aqueous acid stripping solutions", "setting": "[5]; [8]", "result": 15, "unit": "ppm"}, {"measurement": "Ga in combined aqueous acid stripping solutions", "setting": "[5]; [8]", "result": 1100, "unit": "ppm"}, {"measurement": "As in combined aqueous phase and wash solutions", "setting": "[5]; [9]", "result": 2510, "unit": "ppm"}, {"measurement": "Ga in combined aqueous phase and wash solutions", "setting": "[5]; [9]", "result": 114, "unit": "ppm"}, {"measurement": "arsenic and gallium in water washings of organic phase", "setting": "[5]; detection limit less than 1 ppm for each element", "result": "Neither arsenic nor gallium was detectable"}, {"measurement": "Ga recovered per gram of starting sludge", "setting": "[5]; starting sludge 17.7 mg Ga/gram", "result": 17.8, "unit": "mg Ga per gram"}, {"measurement": "As recovered per gram of starting sludge", "setting": "[5]; starting sludge analyzed 13.4 mg As/gram", "result": 17.3, "unit": "mg As/gram"}, {"measurement": "Solubility (25° C.)", "setting": "[3]", "result": "409.", "unit": "ppm"}, {"measurement": "Solubility (25° C.), molarity", "setting": "[3]", "result": "2.18 × 10^-3 molarity"}, {"measurement": "% Ga in Solution After 4 Days", "setting": "[2]", "result": 100, "unit": "%"}, {"measurement": "effectiveness in reaction and dissolution of gallium arsenide", "setting": "[2]; H2O2 as oxidizing agent", "result": "effective complexing agent"}]}, {"molecule": "O.O=P([O-])(O)O.[Na+]", "note": "[NaH2 PO4.H2 O]", "values": [{"measurement": "% Ga in Solution After 4 Days", "setting": "[2]; [6]", "result": 0, "unit": "%"}, {"measurement": "Initial Result", "setting": "[2]; [7]", "result": "No reaction"}]}]}
